Patent publication US8263606B2 (Xenon Pharmaceuticals Inc., priority 2008, dated 2012)

Key:
sodium channel = experiment: Guanidine influx assay (14C-guanidine radiotracer flux, in vitro); format: cell-based, human or rat; settings: guanidine influx assay using a known cell line that expresses a sodium channel
How it was run: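 Radiotracer read-out: intracellular 14C-guanidine counted after washing with guanidine-supplemented low-sodium buffer. Cells expressing human or rat channels get test agent plus aconitine activator and tracer, incubated at ambient temperature. Dilution series centred on 1 μM; IC50 by sigmoidal dose-response fit.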

CYP3A4 = CYP3A4 (Homo sapiens, UniProt P08684); experiment: Cytochrome P450 (CYP450) Inhibition Assay, CYP3A4 (Vivid fluorescence, BOMCC substrate); settings: human, P450 Baculosomes (recombinant CYP3A4), probe BOMCC (Vivid substrate)
Sequence of CYP3A4 (P08684 whole entry): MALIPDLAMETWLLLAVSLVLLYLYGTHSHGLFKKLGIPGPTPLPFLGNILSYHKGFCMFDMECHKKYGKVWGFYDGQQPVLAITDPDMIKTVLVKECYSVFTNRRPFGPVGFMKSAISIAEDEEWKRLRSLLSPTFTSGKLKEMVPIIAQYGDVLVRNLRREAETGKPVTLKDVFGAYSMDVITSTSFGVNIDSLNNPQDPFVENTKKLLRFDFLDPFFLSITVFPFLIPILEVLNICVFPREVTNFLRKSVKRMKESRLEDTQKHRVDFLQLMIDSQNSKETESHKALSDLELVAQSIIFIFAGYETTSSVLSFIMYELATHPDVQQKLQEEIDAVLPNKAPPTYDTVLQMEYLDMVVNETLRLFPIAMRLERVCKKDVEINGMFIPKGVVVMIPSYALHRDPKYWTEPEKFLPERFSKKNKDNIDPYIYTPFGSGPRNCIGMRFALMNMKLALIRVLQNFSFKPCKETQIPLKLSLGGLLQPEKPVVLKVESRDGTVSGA

Row | Compound | IC50 (sodium channel) | melting point | inhibition at 10 µM (CYP3A4) | IC50 (sodium channel; activity level class)
1 | O=C1N(Cc2noc(C3CC3)n2)c2cccc(Cl)c2C12COc1cc3c(cc12)OCO3 (stereo not drawn) [Example 11.20, 4′-chloro-1′-[(5-cyclopropyl-1,2,4-oxadiazol-3-yl)methyl]spiro[furo[2,3-f][1,3]benzodioxole-7,3′-indol]-2′(1′H)-one] | 0.001 to 0.1 µM | 180 to 182 °C | > 50% | –
2 | O=C1N(Cc2ccccc2C(F)(F)F)c2ccccc2[C@@]12COc1cc3c(cc12)OCCO3 [Example 4.114, (8R)-1′-[2-(trifluoromethyl)benzyl]-2,3-dihydrospiro[furo[2,3-g][1,4]benzodioxine-8,3′-indol]-2′(1′H)-one] | – | 137 to 138 °C | < 50% | 0.1 to 1 µM
3 | Cn1c(=O)oc2cc3c(cc21)OCC31C(=O)N(C[C@H]2CCCO2)c2ccccc21 (stereo partly drawn) [Example 8.14, 3-methyl-1′-(((R)-tetrahydrofuran-2-yl)methyl)-2H-spiro[benzofuro[6,5-d]oxazole-7,3′-indoline]-2,2′(3H,6H)-dione] | – | 186 to 187 °C | < 50% | 1 to 10 µM
4 | C[C@@H](CN1C(=O)C2(COc3cc4c(cc32)CCO4)c2ccccc21)OCc1ccc(F)cc1 (stereo partly drawn) [Example 14.2, 1′-{(2S)-2-[(4-fluorobenzyl)oxy]propyl}-5,6-dihydrospiro[benzo[1,2-b:5,4-b′]difuran-3,3′-indol]-2′(1′H)-one] | 0.1 to 1 µM | 55 to 60 °C | > 50% | –
5 | O=C1N(Cc2ccc(O)cc2)c2ccccc2C12COc1cc3c(cc12)CCO3 (stereo not drawn) [Example 17, 1′-(4-hydroxybenzyl)-5,6-dihydrospiro[benzo[1,2-b:5,4-b′]difuran-3,3′-indol]-2′(1′H)-one] | 0.001 to 0.1 µM | 226 to 227 °C | > 50% | –
6 | CC(C)c1cc(CN2C(=O)C3(COc4cc5c(cc43)OCO5)c3ccccc32)on1 (stereo not drawn) [Example 1.6, 1′-[(3-isopropylisoxazol-5-yl)methyl]spiro[furo[2,3-f][1,3]benzodioxole-7,3′-indol]-2′(1′H)-one] | – | 132 to 136 °C | > 50% | 0.001 to 0.1 µM
7 | COc1cc2c(cc1C)C1(CO2)C(=O)N(CC2CCCCO2)c2ccccc21 (stereo not drawn) [Example 4.63, 6-methoxy-5-methyl-1′-(tetrahydro-2H-pyran-2-ylmethyl)spiro[1-benzofuran-3,3′-indol]-2′(1′H)-one] | – | 180 to 182 °C | > 50% | 1 to 10 µM
8 | O=C1N(Cc2noc(C(F)F)n2)c2ccccc2C12COc1cc3c(cc12)OCO3 (stereo not drawn) [Example 11.22, 1-{[5-(difluoromethyl)-1,2,4-oxadiazol-3-yl]methyl}spiro[furo[2,3-f][1,3]benzodioxole-7,3′-indol]-2′(1′H)-one] | 0.001 to 0.1 µM | 137 to 139 °C | > 50% | –
9 | Cc1ccc(NC(=O)c2ccccc2CN2C(=O)C3(COc4cc5c(cc43)CCO5)c3ccccc32)c(C)c1 (stereo not drawn) [Example 12.10, N-(2,4-dimethylphenyl)-2-[(2′-oxo-5,6-dihydrospiro[benzo[1,2-b:5,4-b′]difuran-3,3′-indol]-1′(2′H)-yl)methyl]benzamide] | 1 to 10 µM | 207 to 208 °C | > 50% | –
10 | O=C1N(Cc2cc(C(F)(F)F)ccn2)c2ccccc2C12COc1cc3c(cc12)OCCO3 (stereo not drawn) [Example 23, 1′-{[4-(trifluoromethyl)pyridin-2-yl]methyl}-2,3-dihydrospiro[furo[2,3-g][1,4]benzodioxine-8,3′-indol]-2′(1′H)-one] | 0.001 to 0.1 µM | 154 to 155 °C | < 50% | –
11 | COC(=O)c1cccc(CN2C(=O)C3(COc4cc5c(cc43)CCO5)c3ccccc32)c1 (stereo not drawn) [Example 9.15, methyl 3-[(2′-oxo-5,6-dihydrospiro[benzo[1,2-b:5,4-b′]difuran-3,3′-indol]-1′(2′H)-yl)methyl]benzoate] | – | 97 to 98 °C | > 50% | 0.001 to 0.1 µM
12 | O=C1Nc2ccccc2C12COc1cc3nccnc3cc12 (stereo not drawn) [Example 3.51, spiro[furo[2,3-g]quinoxaline-8,3′-indol]-2′(1′H)-one] | – | 206 to 207 °C | < 50% | 1 to 10 µM
13 | O=C1Nc2cc3c(cc2C12COc1cc4c(cc12)CCO4)OCCO3 (stereo not drawn) [Example 3.28, 2′,3′,5,6-tetrahydrospiro[benzo[1,2-b:5,4-b′]difuran-3,8′-[1,4]dioxino[2,3-f]indol]-7′(6′H)-one] | – | > 250 °C | > 50% | 1 to 10 µM
14 | O=C1N(Cc2noc(C3CC3)n2)c2ccccc2C12COc1cc3c(cc12)OCO3 (stereo not drawn) [Example 11.24, 1′-[(5-cyclopropyl-1,2,4-oxadiazol-3-yl)methyl]spiro[furo[2,3-f][1,3]benzodioxole-7,3′-indol]-2′(1′H)-one] | 0.001 to 0.1 µM | 136 to 137 °C | > 50% | –
15 | Cc1nc2cc3c(cc2s1)C1(CO3)C(=O)Nc2ccccc21 (stereo not drawn) [Example 1, 2-methylspiro[furo[2,3-f][1,3]benzothiazole-7,3′-indol]-2′(1′H)-one] | – | > 250 °C | < 50% | 1 to 10 µM
16 | COC(=O)c1ccc(CN2C(=O)C3(COc4cc5c(cc43)CCO5)c3ccccc32)cc1 (stereo not drawn) [Example 9.16, methyl 4-[(2′-oxo-5,6-dihydrospiro[benzo[1,2-b:5,4-b′]difuran-3,3′-indol]-1′(2′H)-yl)methyl]benzoate] | – | 136 to 140 °C | < 50% | 0.001 to 0.1 µM
17 | O=C1N(Cc2cccc(-c3noc(C(F)(F)F)n3)c2)c2ccccc2C12COc1cc3c(cc12)CCO3 (stereo not drawn) [Example 11.28, 1′-{3-[5-(trifluoromethyl)-1,2,4-oxadiazol-3-yl]benzyl}-5,6-dihydrospiro[benzo[1,2-b:5,4-b′]difuran-3,3′-indol]-2′(1′H)-one] | 0.1 to 1 µM | 182 to 188 °C | > 50% | –
18 | O=C1N(Cc2ccccn2)c2c(F)cccc2C12COc1cc3c(cc12)OCCO3 (stereo not drawn) [Example 8.15, 7′-fluoro-1′-(pyridin-2-ylmethyl)-3,7-dihydro-2H-spiro[benzofuro[5,6-b][1,4]dioxine-8,3′-indolin]-2′-one] | – | 205 to 207 °C | < 50% | 0.001 to 0.1 µM
19 | Cc1nnc(-c2ccc(CN3C(=O)C4(COc5cc6c(cc54)CCO6)c4ccccc43)cc2)[nH]1 (stereo not drawn) [Example 11.29, 1′-[4(5-methyl-4H-1,2,4-triazol-3-yl)benzyl]-5,6-dihydrospiro[benzo[1,2-b:5,4-b′]difuran-3,3′-indol]-2′(1′H)-one] | 0.1 to 1 µM | 169 to 180 °C | > 50% | –
20 | O=C1N(C[C@H]2CCCO2)c2ccccc2C12COc1cc3c(cc12)CCCC3 (stereo partly drawn) [Example 4.129, 1-[(2R)-tetrahydrofuran-2-ylmethyl]-5′,6′,7′,8′-tetrahydrospiro[indole-3,3′-naphtho[2,3-b]furan]-2(1′H)-one] | – | 139 to 141 °C | < 50% | 1 to 10 µM
21 | Cl.O=C1N(C[C@H]2CCCO2)c2ccccc2C12COc1cc(O[C@@H]3CCNC3)ccc12 (stereo partly drawn) [Example 11.58, 6-[(3R)-pyrrolidin-3-yloxy]-1′-[(2R)-tetrahydrofuran-2-ylmethyl]spiro[1-benzofuran-3,3′-indol]-2′(1′H)-one hydrochloride] | 1 to 10 µM | 120 to 130 °C | < 50% | –
